Assay results reported in US12545674B2, “Crystal of trifluoromethyl/chloro disubstituted sulfonamide selective BCL-2 inhibitor” (priority 2020, dated 2026).

Assays:
[1] = Stability test of crystalline forms (high temperature, high humidity, irradiation; HPLC purity and crystal form); format: physicochemical
Method: Test samples were put into an open and proper clean container, and left to stand at 60° C. for 10 days. Samples were collected on day 5 and day 10;
Test samples were put into a closed humid container, and left to stand at 92.5%±5% RH/25° C. for 10 days. Samples were collected on day 5 and day 10;
Test samples were put into a lighting box or other suitable lighting devices (open) with fluorescent lamps at 4500 1×±500 1× for 10 days. Samples were collected on day 5 and day 10.
In the three conditions, the purity of the product and the contents of related substances were detected after the test samples were placed in the experimental conditions. • Instrument: Thermo U3000 high-performance liquid chromatography; • Detector: thermo VWD-3100 UV absorption detector/DAD-3000 diode array detector; • Chromatographic column: XSelect CSH C18 (4.6×150 mm, 3.5 μm); • Injection volume: 10 μL; detection wavelength: 280 nm; flow rate: 1.0 mL/min; column temperature: 30° C.; • Mobile phase: phase A: 0.1% of aqueous formic acid solution, phase B: acetonitrile, gradient elution; • Preparation of sample solution: An appropriate amount of the product was precisely, and dissolved in methanol. The solution was quantitatively diluted to obtain a solution containing about 0.5 mg per 1 mL as a test solution.

[2] = Hygroscopicity test (Chinese Pharmacopoeia General Chapter 9103); format: physicochemical; conditions: 25° C.±1° C., relative humidity 80%±2%, 24 h
Description: For the method and conditions of the hygroscopicity test, please refer to the “Guidelines for the Hygroscopicity Test of Drugs” (General Chapter 9103, Chinese Pharmacopoeia, Volume IV, 2015 Edition). Hygroscopicity refers to the capability or degree of a substance for absorbing water in certain temperature and humidity conditions. The test samples were solid drug substances meeting the specifications, and the test results may be used as a reference for selection of suitable drug packaging and storage conditions. • (1) A dried glass weighing bottle with a plug (outer diameter: 50 mm; height: 15 mm) was taken and placed in a suitable thermostatic dryer (with saturated ammonium chloride or ammonium sulfate solution placed in the lower part) at 25° C.±1° C. or an artificial climate box (with a set temperature at 25° C.±1° C. and relative humidity at 80%±2%) on the day before the test, and the weight (m1) was precisely measured. • (2) An appropriate amount of test sample was taken and spread in the above weighing bottle, with the thickness of the test sample being about 1 mm in general, and the weight (m2) was precisely measured. • (3) The weighing bottle was opened and placed in the above conditions at constant temperature and humidity for 24 h together with the cap. • (4) The weighing bottle was capped, and the weight (m3) was precisely measured.

[3] = High humidity 92.5 ± 5% RH/25° C., Day 0
[4] = High humidity 92.5 ± 5% RH/25° C., Day 5
[5] = High humidity 92.5 ± 5% RH/25° C., Day 10
[6] = High temperature 60° C., open container, Day 0
[7] = High temperature 60° C., open container, Day 5
[8] = High temperature 60° C., open container, Day 10
[9] = Irradiation 4500 ± 500 lx, Day 0
[10] = Irradiation 4500 ± 500 lx, Day 5
[11] = Irradiation 4500 ± 500 lx, Day 10

| SMILES | Crystalline form [1, 3] | Purity [1, 3] [%] | Crystalline form [1, 4] | Purity [1, 4] [%] | Crystalline form [1, 5] | Purity [1, 5] [%] | Crystalline form ([1]; High temperature 60° C., Day 0) | Crystalline form ([1]; High temperature 60° C., Day 5) | Crystalline form ([1]; High temperature 60° C., Day 10) | Purity [1, 6] [%] | Purity [1, 7] [%] | Purity [1, 8] [%] | Crystalline form [1, 9] | Purity [1, 9] [%] | Crystalline form [1, 10] | Purity [1, 10] [%] | Crystalline form [1, 11] | Purity [1, 11] [%] | Hygroscopic weight gain [2] [wt %] |
| --- | --- | --- | --- | --- | --- | --- | --- | --- | --- | --- | --- | --- | --- | --- | --- | --- | --- | --- | --- |
| CC1(C)CCC(CN2CCN(c3ccc(C(=O)NS(=O)(=O)c4ccc(NC[C@H]5COCCO5)c([N+](=O)[O-])c4)c(Oc4cnc5[nH]ccc5c4)c3)CC2)=C(c2ccc(C(F)(F)F)cc2Cl)C1 [Amorphous form] | Amorphous | 97.91 | Amorphous | 97.85 | Amorphous | 97.89 | Amorphous | Amorphous | Amorphous | 97.91 | 97.51 | 97.33 | Amorphous | 97.91 | Amorphous | 95.96 | Amorphous | 93.83 | – |
| CC1(C)CCC(CN2CCN(c3ccc(C(=O)NS(=O)(=O)c4ccc(NC[C@H]5COCCO5)c([N+](=O)[O-])c4)c(Oc4cnc5[nH]ccc5c4)c3)CC2)=C(c2ccc(C(F)(F)F)cc2Cl)C1 [Crystalline form A] | – | 97.92 | – | 97.84 | – | 97.91 | – | – | – | 97.92 | 97.41 | 97.17 | – | 97.92 | – | 97.07 | – | 96.62 | 1.38 |
| CC1(C)CCC(CN2CCN(c3ccc(C(=O)NS(=O)(=O)c4ccc(NC[C@H]5COCCO5)c([N+](=O)[O-])c4)c(Oc4cnc5[nH]ccc5c4)c3)CC2)=C(c2ccc(C(F)(F)F)cc2Cl)C1 [Crystalline form B] | – | 98.44 | – | 98.45 | – | 98.36 | – | – | – | 98.44 | 98.34 | 98.22 | – | 98.44 | – | 98.22 | – | 97.68 | 0.30 |
| CC1(C)CCC(CN2CCN(c3ccc(C(=O)NS(=O)(=O)c4ccc(NC[C@H]5COCCO5)c([N+](=O)[O-])c4)c(Oc4cnc5[nH]ccc5c4)c3)CC2)=C(c2ccc(C(F)(F)F)cc2Cl)C1 [Crystalline form C] | – | 98.56 | – | 98.70 | – | 98.64 | – | – | – | 98.56 | 98.25 | 97.31 | – | 98.56 | – | 98.45 | – | 98.15 | 0.11 |
| CC1(C)CCC(CN2CCN(c3ccc(C(=O)NS(=O)(=O)c4ccc(NC[C@H]5COCCO5)c([N+](=O)[O-])c4)c(Oc4cnc5[nH]ccc5c4)c3)CC2)=C(c2ccc(C(F)(F)F)cc2Cl)C1 [Crystalline form D] | – | – | – | – | – | – | – | – | – | – | – | – | – | – | – | – | – | – | 0.75 |

Further lines, results first:

| Crystalline form [1, 3] | Purity [1, 3] [%] | Crystalline form [1, 4] | Purity [1, 4] [%] | Crystalline form [1, 5] | Purity [1, 5] [%] | Crystalline form ([1]; High temperature 60° C., Day 0) | Crystalline form ([1]; High temperature 60° C., Day 5) | Crystalline form ([1]; High temperature 60° C., Day 10) | Purity [1, 6] [%] | Purity [1, 7] [%] | Purity [1, 8] [%] | Crystalline form [1, 9] | Purity [1, 9] [%] | Crystalline form [1, 10] | Purity [1, 10] [%] | Crystalline form [1, 11] | Purity [1, 11] [%] | Hygroscopic weight gain [2] [wt %] | SMILES |
| --- | --- | --- | --- | --- | --- | --- | --- | --- | --- | --- | --- | --- | --- | --- | --- | --- | --- | --- | --- |
| – | 98.02 | – | – | – | 97.89 | – | – | – | 98.02 | – | 97.88 | – | 98.02 | – | – | – | 97.71 | 0.11 | CC1(C)CCC(CN2CCN(c3ccc(C(=O)NS(=O)(=O)c4ccc(NC[C@H]5COCCO5)c([N+](=O)[O-])c4)c(Oc4cnc5[nH]ccc5c4)c3)CC2)=C(c2ccc(C(F)(F)F)cc2Cl)C1 [Crystalline form E] |
| – | – | – | – | – | – | – | – | – | – | – | – | – | – | – | – | – | – | 0.76 | CC1(C)CCC(CN2CCN(c3ccc(C(=O)NS(=O)(=O)c4ccc(NC[C@H]5COCCO5)c([N+](=O)[O-])c4)c(Oc4cnc5[nH]ccc5c4)c3)CC2)=C(c2ccc(C(F)(F)F)cc2Cl)C1 [Crystalline form F] |
| – | – | – | – | – | – | – | – | – | – | – | – | – | – | – | – | – | – | 0.25 | CC1(C)CCC(CN2CCN(c3ccc(C(=O)NS(=O)(=O)c4ccc(NC[C@H]5COCCO5)c([N+](=O)[O-])c4)c(Oc4cnc5[nH]ccc5c4)c3)CC2)=C(c2ccc(C(F)(F)F)cc2Cl)C1 [Crystalline form H] |
